Data taken from DBAASP.
Values after ≈ are worked out from the molar mass of the structure shown.

Legend:
Test in all cases: ≥ marks a high value that may be exact or a test limit, other limits are often not marked, values filed in µg/mL are converted to µM
[1] = test system: Escherichia coli ATCC 25922
Escherichia coli ML-35 = test system: Escherichia coli ML-35
[2] = test system: Serratia marcescens ATCC 8100
[3] = test system: Salmonella enterica subsp. enterica serovar Typhimurium ATCC 14028
[4] = test system: Staphylococcus aureus ATCC 25923
[5] = test system: Bacillus subtilis ICTA-07
[6] = test system: Pseudomonas aeruginosa ATCC 27853
[7] = test system: Yersinia enterocolitica ATCC 9610
[8] = test system: Enterococcus faecalis WHO 14
[9] = test system: Acinetobacter calcoaceticus ATCC 2305-5
[10] = test system: Micrococcus luteus ATCC 4698
Escherichia coli = test system: Escherichia coli
Saccharomyces cerevisiae = test system: Saccharomyces cerevisiae
[11] = test system: Pseudomonas aeruginosa ATCC 9027
[12] = test system: Bacillus subtilis KCTC 1021
[13] = test system: Staphylococcus epidermidis ATCC 12228
[14] = test system: Shigella dysenteriae ATCC 9752
[15] = test system: Proteus mirabilis ATCC 25933
Candida albicans = test system: Candida albicans
Pseudomonas putida = test system: Pseudomonas putida
Serratia marcescens = test system: Serratia marcescens
[16] = test system: Klebsiella pneumoniae ATCC 10031
[17] = test system: Staphylococcus aureus ATCC 25929
[18] = test system: Enterobacter cloacae 2524
[19] = test system: Enterobacter cloacae 6780
[20] = test system: Klebsiella pneumoniae 913
Escherichia coli 170 = test system: Escherichia coli 170
Acinetobacter baumannii = test system: Acinetobacter baumannii
Escherichia coli 4530 = test system: Escherichia coli 4530
[21] = test system: Klebsiella pneumoniae 1625
[22] = test system: Pseudomonas aeruginosa 4677

## CC(C)C[C@H](NC(=O)[C@H](CCCN=C(N)N)NC(=O)[C@@H]1CCCN1C(=O)[C@@H]1CCCN1C(=O)[C@H](CCCN=C(N)N)NC(=O)[C@@H]1CCCN1)C(=O)N1CCC[C@H]1C(=O)N[C@@H](CCCN=C(N)N)C(=O)N1CCC[C@H]1C(=O)N[C@@H](CCCN=C(N)N)C(=O)N1CCC[C@H]1C(=O)N[C@@H](CCCN=C(N)N)C(=O)N1CCC[C@H]1C(=O)N[C@@H](CC(C)C)C(=O)N1CCC[C@H]1C(=O)N[C@@H](Cc1ccccc1)C(=O)N1CCC[C@H]1C(=O)N[C@@H](CCCN=C(N)N)C(=O)N1CCC[C@H]1C(=O)O [PRPPRLPRPRPRPLPFPRP]
[1]
  MIC: 64 µM (≈ 147 µg/mL)
Escherichia coli ML-35
  MIC: ≥ 64 µM
[2]
  MIC: ≥ 128 µM
[3]
  MIC: 128 µM (≈ 294 µg/mL)
[4]
  MIC: > 128 µM

## CC[C@H](C)[C@@H]1NC(=O)[C@H](CCCCN)NC(=O)[C@H](C(C)C)NC(=O)[C@H](CC(N)=O)NC(=O)[C@H](CC(=O)O)NC(=O)[C@@H]2CCCN2C(=O)[C@H](CC(C)C)NC(=O)CNC(=O)[C@H](Cc2ccc(O)cc2)NC(=O)[C@@H]2CSSC[C@@H]3NC(=O)[C@H](CCC(=O)O)NC(=O)[C@H]([C@@H](C)O)NC(=O)[C@H](CC(N)=O)NC(=O)[C@@H]4CSSC[C@H](NC(=O)[C@H](C)NC(=O)[C@@H]5CCCN5C(=O)[C@H](Cc5c[nH]c6ccccc56)NC(=O)[C@H](C)NC(=O)[C@H](CSSC[C@H](NC(=O)[C@H](CO)NC(=O)[C@H](Cc5ccc(O)cc5)NC(=O)[C@H](CCCCN)NC(=O)[C@@H](NC(=O)CNC(=O)[C@H](CCCN=C(N)N)NC(=O)[C@H](Cc5cnc[nH]5)NC(=O)[C@H](CCC(=O)O)NC(=O)[C@@H](NC(=O)[C@@H](NC(=O)[C@H](Cc5ccc(O)cc5)NC(=O)CNC(=O)[C@H](CC(=O)O)NC(=O)[C@@H](N)CCCCN)[C@@H](C)CC)[C@@H](C)CC)CSSC[C@@H](C(N)=O)NC(=O)[C@H](CCCCN)NC(=O)[C@H](CC(C)C)NC(=O)[C@H](CC(N)=O)NC(=O)[C@H](CC(N)=O)NC(=O)[C@H](CO)NC(=O)[C@H](CC(=O)O)NC(=O)[C@H](Cc5ccccc5)NC1=O)C(=O)N[C@@H](Cc1ccccc1)C(=O)N[C@@H](Cc1ccccc1)C(=O)NCC(=O)N[C@@H]([C@@H](C)O)C(=O)N[C@@H](CC(N)=O)C(=O)N[C@@H](CO)C(=O)N[C@@H](Cc1c[nH]c5ccccc15)C(=O)N4)NC(=O)[C@H](Cc1ccc(O)cc1)NC(=O)CNC(=O)[C@H](CO)NC(=O)[C@H](CO)NC(=O)CNC(=O)[C@H](CCCCN)NC(=O)[C@H](CCCCN)NC(=O)[C@H](CC(C)C)NC(=O)[C@H]([C@@H](C)O)NC3=O)C(=O)N[C@@H](Cc1c[nH]c3ccccc13)C(=O)N2 [KDGYIIEHRGCKYSCFFGTNSWCNTECTLKKGSSGYCAWPACWCYGLPDNVKIFDSNNLKC]
[5]
  MIC: 22 µM (≈ 152 µg/mL)
[6]
  MIC: 77 µM (≈ 533 µg/mL)
[7]
  MIC: ≥ 49 µM
[8]
  MIC: ≥ 34 µM
[9]
  MIC: ≥ 43 µM
[10]
  MIC: ≥ 43 µM

## CC[C@H](C)[C@H](NC(=O)[C@H](CC(C)C)NC(=O)[C@H](CO)NC(=O)[C@H](Cc1ccccc1)NC(=O)[C@H](CC(C)C)NC(=O)[C@@H](N)CO)C(=O)N[C@@H](CCCCN)C(=O)N[C@@H](C)C(=O)NCC(=O)N[C@@H](C)C(=O)N[C@@H](CCCCN)C(=O)N[C@@H](Cc1ccccc1)C(=O)N[C@@H](CC(C)C)C(=O)NCC(=O)N[C@@H](CCCCN)C(=O)N[C@@H](CC(N)=O)C(=O)N[C@@H](CC(C)C)C(=O)N[C@@H](CC(C)C)C(=O)N[C@@H](CCCCN)C(=O)N[C@@H](CCC(N)=O)C(=O)NCC(=O)N[C@@H](C)C(=O)N[C@@H](CS)C(=O)N[C@@H](Cc1ccc(O)cc1)C(=O)N[C@@H](C)C(=O)N[C@@H](C)C(=O)N[C@H]1CSSC[C@@H](C(=O)O)NC(=O)[C@H](CCC(N)=O)NC(=O)[C@H](CCCCN)NC(=O)[C@H](CO)NC(=O)[C@H](C)NC(=O)[C@H](CCCCN)NC1=O [SLFSLIKAGAKFLGKNLLKQGACYAACKASKQC]
Escherichia coli
  MIC: 7.22 µM (≈ 25 µg/mL)
Saccharomyces cerevisiae
  MIC: ≥ 57.8 µM
[11]
  MIC: 14.4 µM (≈ 50 µg/mL)
[12]
  MIC: 14.4 µM (≈ 50 µg/mL)
[13]
  MIC: 14.4 µM (≈ 50 µg/mL)
[14]
  MIC: 7.22 µM (≈ 25 µg/mL)
[15]
  MIC: ≥ 57.8 µM
Candida albicans
  MIC: > 57.8 µM
Pseudomonas putida
  MIC: 14.4 µM (≈ 50 µg/mL)
Serratia marcescens
  MIC: ≥ 57.8 µM
[16]
  MIC: 28.9 µM (≈ 99.9 µg/mL)
[10]
  MIC: 1.44 µM (≈ 5 µg/mL)
[3]
  MIC: > 57.8 µM

## CC(C)C[C@H](NC(=O)[C@H](CO)NC(=O)[C@@H]1CCCN1C(=O)[C@H](CO)NC(=O)[C@H](CC(C)C)NC(=O)[C@@H](N)CCCCN)C(=O)NCC(=O)N1CCC[C@H]1C(=O)N[C@H](C(=O)N[C@@H](CO)C(=O)N[C@@H](CCCCN)C(=O)NCC(=O)N[C@@H](CCCCN)C(=O)N[C@@H](CC(C)C)C(=O)N[C@@H](CC(C)C)C(=O)N[C@@H](C)C(=O)NCC(=O)N[C@@H](CCC(N)=O)C(=O)N[C@@H](CCCN=C(N)N)C(N)=O)C(C)C [KLSPSLGPVSKGKLLAGQR]
[1]
  MIC: 33 µM (≈ 63.9 µg/mL)
[17]
  MIC: ≥ 66 µM

## CC[C@H](C)[C@H](N)C(=O)N[C@@H](C)C(=O)N[C@@H](CO)C(=O)N[C@@H](CCCCN)C(=O)N[C@H](C(=O)N[C@@H](C)C(=O)N[C@@H](CC(N)=O)C(=O)N[C@H](C(=O)N[C@H](C(=O)N[C@@H](CCC(N)=O)C(=O)N[C@@H](CCCCN)C(=O)N[C@@H](CC(C)C)C(=O)N[C@@H](CCCCN)C(=O)N[C@@H](CCCN=C(N)N)C(=O)N[C@@H](CCCCN)C(=O)N[C@@H](C)C(=O)N[C@@H](CCCCN)C(=O)N[C@@H](CC(N)=O)C(=O)N[C@@H](C)C(=O)N[C@H](C(=O)N[C@@H](C)C(=O)O)C(C)C)C(C)C)[C@@H](C)O)C(C)C [IASKVANTVQKLKRKAKNAVA]
[18]
  MIC: 6.25 µM (≈ 14 µg/mL)
[19]
  MIC: ≥ 50 µM
[20]
  MIC: 25 µM (≈ 56 µg/mL)
[1]
  MIC: > 50 µM
Escherichia coli 170
  MIC: 12.5 µM (≈ 28 µg/mL)
Acinetobacter baumannii
  MIC: 8.84 µM (≈ 19.8 µg/mL)
Escherichia coli 4530
  MIC: ≥ 50 µM
[21]
  MIC: ≥ 50 µM
[22]
  MIC: ≥ 50 µM
